Experimental data: patent US20090068113A1, “AMPHIPHILIC SQUARAINE DYES, PROCESS FOR PREPARATION THEREOF AND USE THEREOF” (COUNCIL OF SCIENTIFIC AND INDUSTRIAL RESEARCH, priority 2005, published 2009)

Assays:
Assay type in all cases: physicochemical
[1] = Absorption, emission and fluorescence quantum yield in aqueous and alcoholic solvents
Text: The absorption and emission maxima, and fluorescence quantum yields of these dyes in aqueous and alcoholic solvents are listed in Table 1. The long wavelength absorption and emission maxima and good fluorescence quantum yields in aqueous media make these dyes ideal candidates for application as fluorescence probes.

[2] = Photophysical properties and picosecond time-resolved fluorescence lifetimes in the presence of cationic micelle CTAB; settings: for Abs λmax / Ems λmax / Φf: In the presence of CTAB
Text: (§1) Study of the stability and photophysical properties of a photosensitizer under physiological conditions is important during its evaluation for various in vitro and in vivo applications. Particularly, the influence of membrane mimics like cetyltrimethylammonium bromide and carrier systems like β-cyclodextrin will provide information on the sensitizer behaviour under physiological conditions. Moreover, such studies are also useful to clarify points such as whether a particular dye forms aggregates or not and whether it generates cytotoxic agents or not in such environments. These media are unique in their properties, since β-CD forms inclusion complexes with the guest molecules, while others form micellar structures thereby provide in them both the hydrophobic and hydrophilic environment.
(§2) FIGS. 3, 4, and 5 show the emission spectra of dye of the general formula 1, wherein, R^1=—(CH2—CH2—O)n—CH3, n=4 and R^2=—CH3 in the presence of cationic micelle CTAB, anionic micelle SDS and neutral micelle Triton X-100, respectively. As the concentration of micelles increases, the fluorescence intensity of the dye increases showing an effective interaction between the micelles and the dye. To have a better understanding of the effect of micellar media we have analyzed the picosecond time-resolved fluorescence lifetimes of dyes of the general formula 1. […] Tables 2, 3 and 4
(§3) lists the absorption and emission maxima, fluorescence quantum yield and lifetimes of dyes of the general formula 1 wherein, R^1=—(CH2—CH2—O)n—CH3, n=4 and R^2=—CH3, general formula 2, wherein R^1, R^2=—(CH2—CH2—O)n—CH3, n=4 and general formula 3, wherein R^1=—(CH2)n—CO2X, n=3, X=H, and R^2=—CH3, in the absence and presence of cationic micelle CTAB, anionic micelle SDS and neutral micelle Triton X-100.

[3] = Photophysical properties and fluorescence lifetimes in the presence of anionic micelle SDS
Text: as §1, §2, §3

[4] = Photophysical properties and fluorescence lifetimes in the presence of neutral micelle Triton X-100
Text: as §1, §2, §3

[5] = Photophysical properties and fluorescence lifetimes in the presence of β-CD; settings: for Abs λmax / Ems λmax / Φf: In the presence of β-CD
Text: as §1
Table 5 summarises the absorption and emission maxima, fluorescence quantum yields and lifetimes of squaraine dyes of the general formula 1 in the presence of β-CD.

[6] = Summary of photophysical properties in the presence of membrane mimics and drug carriers; settings: presence of membrane mimics and drug carriers versus aqueous media
Text: The main advantages of these systems include: • 1. Squaraines dyes represented by formulae 1, 2 and 3 are novel and pure single substances. • 2. Their synthetic methodology is very economical. • 3. […] They can be used for photodynamic applications such as sterilization of fluids etc. • 7. The squaraine-based dyes can be used as near infrared fluorescent probes for protein labeling. • 8. The squaraine dyes of the general formula 1 can be used as near infrared fluorescent labels in immunoassays. • 9. They can be used for the detection of biologically important metal ions under physiological conditions. • 10. These novel dyes can be used as near-infrared fluorescence sensors in biological, biochemical and industrial applications.

[7] = Photophysical properties and fluorescence lifetimes in the presence of β-CD; settings: in the absence of β-CD
[8] = In the presence of Triton X-100

| Φf (fluorescence quantum yield) ([1]; 10% v/v Ethanol/water) | λmax, nm abs ([1]; 10% v/v Ethanol/water) | λmax, nm ems ([1]; 10% v/v Ethanol/water) | Φf (fluorescence quantum yield) ([1]; Ethanol) | λmax, nm abs ([1]; Ethanol) | λmax, nm ems ([1]; Ethanol) | Φf (fluorescence quantum yield) ([1]; Water) | λmax, nm abs ([1]; Water) | λmax, nm ems ([1]; Water) | Abs λmax [2] | Ems λmax [2] | Φf [2] | Abs λmax ([3]; In the presence of SDS) | Abs λmax [4, 8] | Ems λmax [4, 8] | Φf [4, 8] | Abs λmax [5] | Ems λmax [5] | Φf [5] | increase of emission quantum yield [6] | Structure (SMILES) | other results |
| --- | --- | --- | --- | --- | --- | --- | --- | --- | --- | --- | --- | --- | --- | --- | --- | --- | --- | --- | --- | --- | --- |
| 0.018 | 645 nm | 674 nm | 0.19 | 637 nm | 660 nm | 0.013 | 644 nm | 671 nm | 642 nm | 663 nm | 0.12 | 640 nm | 645 nm | 669 nm | 0.12 | 644 nm | 663 nm | 0.10 | ~10 fold | COCCOCCOCCOCCN(C)c1ccc(C2=C([O-])C(=C3C=CC(=[N+](C)CCOCCOCCOCCOC)C=C3)C2=O)cc1 [Formula 1] | fluorescence intensity as the concentration of micelles increases ([2]; CTAB 0 to 129 mM, excitation 600 nm): increases; Ems λmax ([3]; In the presence of SDS): 663 nm; Lifetimes ([3]; In the presence of SDS): 590 ps; Φf ([3]; In the presence of SDS): 0.15; fluorescence intensity as the concentration of micelles increases ([3]; SDS 0 to 21 mM, excitation 600 nm): increases; fluorescence intensity as the concentration of micelles increases ([4]; Triton X-100 0 to 118 mM, excitation 600 nm): increases; form of fluorescence decay ([5]; in the presence of β-CD): Biexponential decay; form of fluorescence decay [7]: mono exponential decay |
| 0.026 | 646 nm | 675 nm | 0.21 | 638 nm | 662 nm | 0.021 | 646 nm | 676 nm | 644 nm | 667 nm | 0.096 | 643 nm | 646 nm | 671 nm | 0.14 | 645 nm | 668 nm | 0.07 | ~10 fold | COCCOCCOCCOCCN(CCOCCOCCOCCOC)c1ccc(C2=C([O-])C(=C3C=CC(=[N+](CCOCCOCCOCCOC)CCOCCOCCOCCOC)C=C3)C2=O)cc1 [Formula 2] | Ems λmax ([3]; In the presence of SDS): 668 nm; Φf ([3]; In the presence of SDS): 0.16; Relative contribution of lifetime component [4, 8]: (7%) |
| 0.015 | 647 nm | 673 nm | 0.18 | 636 nm | 662 nm | 0.007 | 645 nm | 673 nm | 644 nm | 667 nm | 0.14 |  | 649 nm | 672 nm | 0.12 | 649 nm | 666 nm | 0.19 | ~10 fold | CN(CCCC(=O)O)c1ccc(C2=C([O-])C(=C3C=CC(=[N+](C)CCCC(=O)O)C=C3)C2=O)cc1 [Formula 3] |  |
